# Test results taken from ChEMBL document CHEMBL1201862, “PubChem BioAssay data set” (2004).
#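 Exposure lasted 48 hours, with cells grown in 96-well plates and compounds tested at five concentrations. Here, GI50 denotes the concentration required for 50% inhibition of growth.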 The source made the active and inactive calls. Cut-off read from the data, not from the text of the source: active = GI50 up to about 1.1 µM and inactive = higher.
# Columns and labels:
# Experiment in all cases: inhibition of tumour cell growth, NCI panel, 48 h
# [1] = test system: 786-0
# [2] = test system: A498
# [3] = test system: A549
# [4] = test system: ACHN
# [5] = test system: CAKI-1
# [6] = test system: CCRF-CEM
# [7] = test system: COLO 205
# [8] = test system: DLD-1
# [9] = test system: DMS-114
# [10] = test system: DMS-273
# [11] = test system: HCC 2998
# [12] = test system: HCT-116
# [13] = test system: HCT-15
# [14] = test system: HL-60
# [15] = test system: HOP-62
# [16] = test system: HOP-92
# [17] = test system: HT-29
# [18] = test system: IGROV-1
# [19] = test system: K562
# [20] = test system: KM-20L2
# [21] = test system: KM12
# [22] = test system: M14
# [23] = test system: M19-MEL
# [24] = test system: MOLT-4
# [25] = test system: Malme-3M
# [26] = test system: NCI-H226
# [27] = test system: NCI-H23
# [28] = test system: NCI-H460
# [29] = test system: OVCAR-3
# [30] = test system: OVCAR-4
# [31] = test system: OVCAR-5
# [32] = test system: OVCAR-8
# [33] = test system: RPMI-8226
# [34] = test system: RXF 393
# [35] = test system: SF-268
# [36] = test system: SF-295
# [37] = test system: SF-539
# [38] = test system: SK-MEL-28
# [39] = test system: SK-MEL-2
# [40] = test system: SK-MEL-5
# [41] = test system: SK-OV-3
# [42] = test system: SN12C
# [43] = test system: SNB-19
# [44] = test system: SNB-75
# [45] = test system: SNB-78
# [46] = test system: TK-10
# [47] = test system: U-251
# [48] = test system: UACC-257
# [49] = test system: UACC-62
# [50] = test system: UO-31
# [51] = test system: XF498
# [52] = test system: HOP-18
# [53] = test system: LOX IMVI
# [54] = test system: LXFL 529
# [55] = test system: NCI-H522
# [56] = test system: SR
# [57] = test system: SW-620
smiles,measurement,setting,value
CS(=O)(=O)OCCN1CCN(C(=O)c2cccc3c(Nc4ccc(S(=O)(=O)N=C(N)N)cc4)c4ccccc4nc23)CC1,GI50,[1],> 100 µM (inactive)
same,GI50,[2],> 100 µM (inactive)
same,GI50,[3],> 100 µM (inactive)
same,GI50,[4],> 100 µM (inactive)
same,GI50,[5],> 100 µM (inactive)
same,GI50,[6],> 100 µM (inactive)
same,GI50,[7],> 100 µM (inactive)
same,GI50,[8],> 100 µM (inactive)
same,GI50,[9],> 100 µM (inactive)
same,GI50,[10],> 100 µM (inactive)
same,GI50,[11],> 100 µM (inactive)
same,GI50,[12],> 100 µM (inactive)
same,GI50,[13],> 100 µM
same,GI50,[14],> 100 µM (inactive)
same,GI50,[15],> 100 µM (inactive)
same,GI50,[16],> 100 µM (inactive)
same,GI50,[17],> 100 µM (inactive)
same,GI50,[18],> 100 µM (inactive)
same,GI50,[19],> 100 µM (inactive)
same,GI50,[20],> 100 µM (inactive)
same,GI50,[21],> 100 µM (inactive)
same,GI50,[22],> 100 µM (inactive)
same,GI50,[23],> 100 µM (inactive)
same,GI50,[24],> 100 µM (inactive)
same,GI50,[25],> 100 µM (inactive)
same,GI50,[26],> 100 µM (inactive)
same,GI50,[27],> 100 µM (inactive)
same,GI50,[28],> 100 µM (inactive)
same,GI50,[29],> 100 µM (inactive)
same,GI50,[30],> 100 µM (inactive)
same,GI50,[31],> 100 µM (inactive)
same,GI50,[32],> 100 µM (inactive)
same,GI50,[33],> 100 µM (inactive)
same,GI50,[34],> 100 µM (inactive)
same,GI50,[35],> 100 µM (inactive)
same,GI50,[36],> 100 µM (inactive)
same,GI50,[37],> 100 µM (inactive)
same,GI50,[38],> 100 µM (inactive)
same,GI50,[39],> 10 µM (inactive)
same,GI50,[40],> 100 µM (inactive)
same,GI50,[41],> 100 µM (inactive)
same,GI50,[42],> 100 µM (inactive)
same,GI50,[43],> 100 µM (inactive)
same,GI50,[44],> 100 µM (inactive)
same,GI50,[45],> 100 µM (inactive)
same,GI50,[46],> 100 µM (inactive)
same,GI50,[47],> 100 µM (inactive)
same,GI50,[48],> 100 µM (inactive)
same,GI50,[49],> 100 µM (inactive)
same,GI50,[50],> 100 µM (inactive)
same,GI50,[51],> 100 µM (inactive)
O=C1CC(=O)N(CCc2ccccc2)S(=O)(=O)N1CCc1ccccc1,GI50,[1],17.1 µM (inactive)
same,GI50,[2],16.6 µM (inactive)
same,GI50,[3],24.4 µM (inactive)
same,GI50,[4],35.9 µM (inactive)
same,GI50,[5],22.2 µM (inactive)
same,GI50,[6],17.2 µM (inactive)
same,GI50,[7],22.4 µM (inactive)
same,GI50,[8],43.5 µM (inactive)
same,GI50,[9],21.4 µM (inactive)
same,GI50,[10],22.5 µM (inactive)
same,GI50,[11],86.9 µM (inactive)
same,GI50,[12],28.7 µM (inactive)
same,GI50,[13],33.2 µM
same,GI50,[14],19.1 µM (inactive)
same,GI50,[52],65.2 µM (inactive)
same,GI50,[15],36.2 µM (inactive)
same,GI50,[16],16.6 µM (inactive)
same,GI50,[17],23 µM (inactive)
same,GI50,[18],20.1 µM (inactive)
same,GI50,[19],23.7 µM (inactive)
same,GI50,[21],16.2 µM (inactive)
same,GI50,[53],1.91 µM (inactive)
same,GI50,[54],19.8 µM (inactive)
same,GI50,[22],40.6 µM (inactive)
same,GI50,[23],32.4 µM (inactive)
same,GI50,[24],20.3 µM (inactive)
same,GI50,[25],26 µM (inactive)
same,GI50,[27],25 µM (inactive)
same,GI50,[28],27.7 µM (inactive)
same,GI50,[55],19.5 µM (inactive)
same,GI50,[29],16.9 µM (inactive)
same,GI50,[30],19.8 µM (inactive)
same,GI50,[31],22.7 µM (inactive)
same,GI50,[32],> 10 µM (inactive)
same,GI50,[33],24.4 µM (inactive)
same,GI50,[34],34.1 µM (inactive)
same,GI50,[35],29.1 µM (inactive)
same,GI50,[36],16.9 µM (inactive)
same,GI50,[37],22.6 µM (inactive)
same,GI50,[38],28.1 µM (inactive)
same,GI50,[39],22.6 µM (inactive)
same,GI50,[40],18.7 µM (inactive)
same,GI50,[41],24.3 µM (inactive)
same,GI50,[42],33 µM (inactive)
same,GI50,[43],29.2 µM (inactive)
same,GI50,[44],23.1 µM (inactive)
same,GI50,[56],22.7 µM (inactive)
same,GI50,[57],31.8 µM (inactive)
same,GI50,[46],36.6 µM (inactive)
same,GI50,[47],16.9 µM (inactive)
same,GI50,[49],25.9 µM (inactive)
same,GI50,[50],21.8 µM (inactive)
